This passage reports IC50 results from ChEMBL document CHEMBL1155888, “Synthesis, inhibitory activities, and QSAR study of xanthone derivatives as alpha-glucosidase inhibitors” (Bioorg Med Chem, 2008).

A word on the IC50: it is the point on the concentration scale where inhibition reaches its midpoint.

Each structure is given as a SMILES string.

This experiment can be described thus: Inhibition of yeast alpha glucosidase in phosphate buffer after 0.5 hrs by spectrophotometry. Details: species or system Saccharomyces.
`Oc1cc(O)c2c(c1)Oc1ccc3ccccc3c1C2` returned an IC50 of 34.9 µM.
To `O=c1c2cc3ccccc3cc2oc2cc(O)c([N+](=O)[O-])c(O)c12` belongs 5.9 µM; to `O=c1c2ccccc2oc2cc(OCCCN3CCCCC3)cc(O)c12`, 115 µM.
Next, `CC(=O)Oc1cc(OC(C)=O)c2c(=O)c3c(OC(C)=O)cc(OC(C)=O)cc3oc2c1`: 49.7 µM; `O=c1c2c(O)cc(O)cc2oc2cc(O)cc(O)c12`: 17.1 µM.
Next, `O=c1c2ccc(O)cc2oc2cccc(O)c12`: 131 µM.
`COc1cc(O)c2c(=O)c3cc4ccccc4cc3oc2c1` showed a 50% inhibitory concentration (IC50) of 31.3 µM.
Next, `O=c1c2cc3ccccc3cc2oc2cc(O)cc(O)c12`: 9.3 µM.
As to `O=c1c2ccccc2oc2cc(OCCCBr)cc(O)c12`, inhibition was half-maximal at 147 µM (IC50). Against the preceding compound, the IC50 is about 16-fold higher.
`O=c1c2ccccc2oc2cc(OCc3ccccc3)cc(O)c12` showed an IC50 of 98.2 µM.
For `O=c1c2ccccc2oc2c([N+](=O)[O-])c(O)cc(O)c12`, inhibition was half-maximal at 235 µM (IC50).
`O=c1c2cc3ccccc3cc2oc2cc(OCCCBr)cc(O)c12`: inhibition was half-maximal at 29.7 µM (IC50).
Compound `O=c1c2c(O)cccc2oc2cccc(O)c12` yielded a half-maximal inhibitory concentration (IC50) of 91.5 µM.
Next, `CC(=O)Oc1ccc2c(=O)c3c(OC(C)=O)cccc3oc2c1`: 139 µM.
`CCCCCCCCOc1cc(O)c2c(=O)c3ccccc3oc2c1` showed an IC50 of 124 µM.
As to `Oc1cc(O)c2c(c1)Oc1cc3ccccc3cc1C2`, the IC50 stood at 27.8 µM. This IC50 is about 4.5-fold lower than that of the compound before.
To `O=c1c2ccc(OCCCN3CCCCC3)cc2oc2cccc(O)c12` belongs 133 µM; to `O=c1c2ccccc2oc2cc(OCC3CCCO3)cc(O)c12` (stereo not drawn), 53 µM; to `O=c1c2ccccc2oc2c3c(cc(O)c12)OCCC3`, 198 µM.
Next, `O=c1c2c(O)cc(O)cc2oc2ccc3ccccc3c12`: 39.9 µM; `CCCCOc1cc(O)c2c(=O)c3ccccc3oc2c1`: 130 µM; `O=c1c2ccccc2oc2cc(OCC3CO3)cc(O)c12` (stereo not drawn): 66.6 µM.
`O=c1c2cc(O)ccc2oc2cc(O)cc(O)c12` had an IC50 of 14.7 µM. Compared with the last compound, the IC50 is about 4.5-fold lower.
To `CCCCCCCOc1cc(O)c2c(=O)c3ccccc3oc2c1` belongs 114 µM; to `O=c1c2ccccc2oc2cccc(O)c12`, 177 µM; to `O=c1c2c(O)cccc2oc2cc(O)cc(O)c12`, 81.8 µM.
To `Nc1c(O)cc(O)c2c(=O)c3cc4ccccc4cc3oc12` belongs 8.3 µM; to `O=c1c2cc3cccc(O)c3cc2oc2cc(O)cc(O)c12`, 8 µM.
`Nc1c(O)cc2oc3cc4ccccc4cc3c(=O)c2c1O` yielded an IC50 of 6.3 µM.
Next, `CCOc1cc(O)c2c(=O)c3ccccc3oc2c1`: 111 µM; `O=c1c2ccc(OCC3CO3)cc2oc2cccc(O)c12` (stereo not drawn): 63.5 µM.
To `O=c1c2cc3ccccc3cc2oc2c([N+](=O)[O-])c(O)cc(O)c12` belongs 20.1 µM; to `O=c1c2cc3ccccc3cc2oc2c3c(cc(O)c12)OCCC3`, 67.3 µM; to `COc1cc(O)c2c(=O)c3ccccc3oc2c1`, 173 µM.
To `O=c1c2cc3cc(O)ccc3cc2oc2cc(O)cc(O)c12` belongs 5.8 µM.
The compound `CC(=O)Oc1cc(OC(C)=O)c2c(=O)c3cc(OC(C)=O)ccc3oc2c1` came in with an IC50 of 46.5 µM.
To `O=c1c2ccccc2oc2cc(OCCCN3CCN(c4cccc(Cl)c4)CC3)cc(O)c12` belongs 61.8 µM; to `CCCCCOc1cc(O)c2c(=O)c3ccccc3oc2c1`, 121 µM.
To `Nc1c(O)cc(O)c2c(=O)c3ccccc3oc12` belongs 102 µM.
In the case of `CC(=O)Oc1cc(OC(C)=O)c2c(=O)c3ccccc3oc2c1`, the half-maximal inhibitory concentration (IC50) came out at 31.9 µM.
Next, `O=c1c2ccccc2oc2cc(O)cc(O)c12`: 161 µM.
Turning to `O=c1c2ccc(O)cc2oc2cc(O)cc(O)c12`, the concentration for half-maximal inhibition (IC50) stood at 41.5 µM.
With `CCCCCCCCCCOc1cc(O)c2c(=O)c3ccccc3oc2c1`, the concentration for half-maximal inhibition (IC50) stood at 116 µM.
